From patent US20230235358A1, “HOST DEFENSE SUPPRESSING METHODS AND COMPOSITIONS FOR MODULATING A GENOME” (FLAGSHIP PIONEERING INNOVATIONS VI, LLC, priority 2020, published 2023)

Columns and labels:
[1] = test system: mouse liver; experiment: LNP-mediated delivery of firefly luciferase mRNA to the mouse liver (luciferase activity of liver homogenate); type: in vivo; conditions: C57BL/6 mice, i.v. 1 mg/kg, 6, 24, 48 hours, FIG. 2
Procedure: To measure the effectiveness of LNP-mediated delivery of firefly luciferase containing particles to the liver, LNPs were formulated and characterized as described in Example 9 and tested in vitro prior (Example 10) to administration to mice. C57BL/6 male mice (Charles River Labs) at approximately 8 weeks of age were dosed with LNPs via intravenous (i.v.) route at 1 mg/kg. Vehicle control animals were dosed i.v. with 300 μL phosphate buffered saline. Mice were injected via intraperitoneal route with dexamethasone at 5 mg/kg 30 minutes prior to injection of LNPs. Tissues were collected at necropsy at or 6, 24, 48 hours after LNP administration with a group size of 5 mice per time point. Liver and other tissue samples were collected, snap-frozen in liquid nitrogen, and stored at −80° C. until analysis.
Frozen liver samples were pulverized on dry ice and transferred to homogenization tubes containing lysing matrix D beads (MP Biomedical). Ice-cold 1×luciferase cell culture lysis reagent (CCLR) (Promega) was added to each tube and the samples were homogenized in a Fast Prep-24 5G Homogenizer (MP Biomedical) at 6 m/s for 40 seconds. The samples were transferred to a clean microcentrifuge tube and clarified by centrifugation. Prior to luciferase activity assay, the protein concentration of liver homogenates was determined for each sample using the Pierce™ BCA Protein Assay Kit (ThermoFisher Scientific) according to the manufacturer's instructions. Luciferase activity was measured with 200 μg (total protein) of liver homogenate using the luciferase assay reagent (Promega) according to manufacturer's instructions using an i3X SpectraMax plate reader (Molecular Devices). […] Reporter activity by the various formulations followed the ranking LIPIDV005>LIPIDV004>LIPIDV003. RNA expression was transient and enzyme levels returned near vehicle background by 48 hours. Post-administration. This assay validated the use of these ionizable lipids and their respective formulations for RNA systems for delivery to the liver.

[2] = test system: primary human dermal fibroblasts; experiment: Gene Writing efficiency (GFP flow cytometry / ddPCR) with BAY 11-7082; type: cell-based; conditions: addition of BAY11
Procedure: (§1) In this example, primary human dermal fibroblasts (ATCC PCS-201-012) are cultured according to ATCC instructions. Cells are nucleofected (Lonza Nucleofector®) with the following samples: • 1. mRNA encoding Gene Writer polypeptide targeting AAVS1+Gene Writer RNA template carrying a GFP reporter gene • 2. Condition (1) with genetically inactivated Gene Writer polypeptide • 3. Condition (1)+BAY 11-7082 • 4. Condition (1)+BAY 11-7082+IFN-beta
(§2) Gene Writing efficiency is measured from cultured cells 3 days after transfection by flow cytometry to assay the percentage of cells expressing GFP or by digital droplet PCR analysis with primers and probe on the junction between the template sequence and the targeted locus and on reference sequences as previously described (see PCT/US2019/048607). […] In some embodiments, the addition of BAY11 will increase one or both of the expression of the Gene Writer polypeptide, and the stability of the RNA template. In some embodiments, the addition of […] will also reduce cytotoxicity, e.g., cytotoxicity that is due to intracellular immune pathways.

[3] = test system: primary human dermal fibroblasts; experiment: Cytotoxicity (PrestoBlue) three days post transfection, Example 3; type: cell-based; conditions: addition of BAY11
Procedure: as §1, §2

[4] = test system: human skin cells; conditions: cited from earlier work

| SMILES | Reporter (luciferase) activity in liver, ranking of formulations [1] | Expression of the Gene Writer polypeptide and/or stability of the RNA template [2] | Cytotoxicity due to intracellular immune pathways [3] | Expression of OCT4 from synthetic mRNA [4] |
| --- | --- | --- | --- | --- |
| CCCCCCCCCOC(=O)CCCCCCCN(CCO)CCCCCCCC(=O)OC(CCCCCCCC)CCCCCCCC [LIPIDV004] | LIPIDV005>LIPIDV004>LIPIDV003 | – | – | – |
| CCCCCCCC(=O)N(CCCN(C)C)C(CCCCCCCCC(=O)OC(CCCCCC)CCCCCC)CCCCCCCCC(=O)OC(CCCCCC)CCCCCC [LIPIDV005] | LIPIDV005>LIPIDV004>LIPIDV003 | – | – | – |
| CCCCC/C=C\C/C=C\CCCCCCCC(=O)OCC(COC(=O)CCC(OCCCCCCCC)OCCCCCCCC)COC(=O)OCCCN(CC)CC (stereo not drawn) [LIPIDV003] | LIPIDV005>LIPIDV004>LIPIDV003 | – | – | – |
| Cc1ccc(S(=O)(=O)/C=C/C#N)cc1 [BAY11, BAY 11-7082] | – | increase | reduce | improve |
